Counter-ions that a name gives are not always drawn.

The first experiment relates to amyloid β production in transfected H4 (human neuroglioma) cells stably expressing APP constructs. Put plainly: In vitro cell-based assay of inhibitors of amyloid β production (ELISA). Conditions: Homo sapiens, 16 h, Table B; transfected H4 cells stably expressing APP; approximately 16 hours incubation; amyloid β in medium by ELISA; read-out: ACTIVITY (inhibitory concentration IC50, inhibition of amyloid β production). The gist of the method: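 Test agents are screened at 10-100 μM for about 16 hours on cells stably expressing wild-type or variant APP. Secreted Aβ is measured by ELISA and compared with control-treated cells.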
On to `C=C(C)C(=O)CCCc1cc(F)ccc1[C@@H](C)N(c1cc(F)ccc1F)S(=O)(=O)c1ccc(Cl)cc1` [Example 207, 4-chloro-N-(2,5-difluorophenyl)-N-{(1R)-1-[4-fluoro-2-(5-methyl-4-oxo-5-hexenyl)phenyl]ethyl}benzenesulfonamide], for which the IC50 lay in the range of 25 to 50 nM. On the same count and under the same terms, for `CCN(CC)C(=O)CCCc1cc(F)ccc1[C@@H](C)N(c1cc(F)ccc1F)S(=O)(=O)c1ccc(Cl)cc1` [Example 223, 4-[2-((1R)-1-{[(4-chlorophenyl)sulfonyl]-2,5-difluoroanilino}ethyl)-5-fluorophenyl]-N,N-diethylbutanamide] the value was 25 to 50 nM.

The same experiment, now with this note: Table B; transfected H4 cells stably expressing APP; approximately 16 hours incubation; amyloid β in medium by ELISA; read-out: ACTIVITY (inhibitory concentration IC50, inhibition of amyloid β production).
Turning to `C[C@H](CCS(=O)(=O)CC(=O)O)N(c1cc(Cl)ccc1Cl)S(=O)(=O)c1ccc(Cl)cc1` [Example 183, (6R)-6-[(2,5-dichlorophenyl)[(4-chlorophenyl)sulfonyl]amino]-3-thioheptanoic Acid, 3,3 Dioxide], the IC50 was in the range of 25 to 50 nM.

Regarding `O=S(=O)(c1ccc(Cl)cc1)N(Cc1cc(Cl)ccc1OCCCN1CCCCC1)c1ccccc1` [Example 230, 4-Chloro-N-{5-chloro-2-[3-(1-piperidinyl)propoxy]benzyl}-N-phenylbenzenesulfonamide Hydrochloride], the IC50 fell in the range of 25 to 50 nM. Consider `CC(=O)Nc1nc(C)c(S(=O)(=O)N(Cc2ccccc2OCCCN2CCCCC2)c2cc(Cl)ccc2Cl)s1` [Example 259, N-{5-[(2,5-dichloro{2-[3-(1-piperidinyl)propoxy]benzyl}anilino)sulfonyl]-4-methyl-1,3-thiazol-2-yl}acetamide Hydrochloride], for which the IC50 was in the range of 25 to 50 nM. `O=S(=O)(/C=C/c1ccccc1)N(Cc1ccccc1OCCCN1CCCCC1)c1cc(Cl)ccc1Cl` [Example 260, (E)-N-(2,5-dichlorophenyl)-2-phenyl-N-{2-[3-(1-piperidinyl)propoxy]benzyl}ethenesulfonamide hydrochloride]: the IC50 lay within 25 to 50 nM. As to `O=S(=O)(Cc1ccccc1)N(Cc1ccccc1OCCCN1CCCCC1)c1cc(Cl)ccc1Cl` [Example 261, N-(2,5-dichlorophenyl)(phenyl)-N-{2-[3-(1-piperidinyl)propoxy]benzyl}methanesulfonamide Hydrochloride], the IC50 is 25 to 50 nM.

The same experiment, now with this note: read-out: ACTIVITY (inhibitory concentration IC50, inhibition of amyloid β production).
Regarding `O=S(=O)(c1ccc(Cl)cc1)N(Cc1cc(F)ccc1OCCCN1CCCCC1)c1cc(F)ccc1F` [Example 231, 4-Chloro-N-(2,5-difluorophenyl)-N-{5-fluoro-2-[3-(1-piperidinyl)propoxy]benzyl}benzenesulfonamide Hydrochloride], the IC50 was in the range of 25 to 50 nM.

`Cc1ccc(OCCCN2CCCCC2)c(CN(c2cc(F)ccc2F)S(=O)(=O)c2ccc(Cl)cc2)c1` [Example 232, 4-Chloro-N-(2,5-difluorophenyl)-N-{5-methyl-2-[3-(1-piperidinyl)propoxy]benzyl}benzenesulfonamide hydrochloride]: the IC50 was in the range of 25 to 50 nM.

For `O=S(=O)(c1ccc(Cl)cc1)N(Cc1ncccc1OCCCN1CCCCC1)c1cc(F)ccc1F` [Example 233, 4-Chloro-N-(2,5-difluorophenyl)-N-({3-[3-(1-piperidinyl)propoxy]-2-pyridinyl}methyl)benzenesulfonamide Hydrochloride], the IC50 lay within 25 to 50 nM. On to `O=S(=O)(c1ccc(Cl)cc1)N(Cc1ccccc1OCCCN1CCCCC1)c1cccc(Cl)c1` [Example 235, 4-Chloro-N-(3-chlorophenyl)-N-{2-[3-(1-piperidinyl)propoxy]benzyl}benzenesulfonamide Hydrochloride], for which the IC50 lay in the range of 25 to 50 nM. As to `CC(c1ccccc1OCCCN1CCCCC1)N(c1cc(F)ccc1F)S(=O)(=O)c1ccc(Cl)cc1` (stereo not shown) [Example 236, 4-Chloro-N-(2,5-difluorophenyl)-N-(1-{2-[3-(1-piperidinyl)propoxy]phenyl}ethyl)benzenesulfonamide Hydrochloride], the IC50 lay in the range of 25 to 50 nM. In the case of `O=S(=O)(c1ccc(Cl)cc1)N(Cc1ccccc1OCCCN1CCCCC1)c1cccc(Br)c1` [Example 237, N-(3-bromophenyl)-4-chloro-N-{2-[3-(1-piperidinyl)propoxy]benzyl}benzenesulfonamide Hydrochloride], the IC50 lay within 25 to 50 nM. Turning to `CSc1ccccc1N(Cc1ccccc1OCCCN1CCCCC1)S(=O)(=O)c1ccc(Cl)cc1` [Example 238, 4-Chloro-N-[2-(methylsulfanyl)phenyl]-N-{2-[3-(1-piperidinyl)propoxy]benzyl}benzenesulfonamide Hydrochloride], the IC50 lay within 25 to 50 nM.

The same experiment, now with this note: transfected H4 cells stably expressing APP; approximately 16 hours incubation; amyloid β in medium by ELISA; Table B; read-out: ACTIVITY (IC50, inhibition of amyloid β production).
With `O=S1(=O)c2cccc3cccc(c23)N1Cc1ccccc1OCCCN1CCCCC1` [Example 269, 2-{2-[3-(1-piperidinyl)propoxy]benzyl}-2H-naphtho[1,8-cd]isothiazole 1,1-Dioxide Hydrochloride], the IC50 was 25 to 50 nM. The same measure, in the same setting: for `O=S(=O)(c1ccc(Cl)cc1)N(Cc1ccccc1OCCCN1CCCCC1)C1CCOCC1` [Example 271, 4-Chloro-N-{2-[3-(1-piperidinyl)propoxy]benzyl}-N-tetrahydro-2H-pyran-4-ylbenzenesulfonamide hydrochloride] the value was 25 to 50 nM. On to `O=S(=O)(c1ccc(Cl)cc1)N(Cc1ccc2ccccc2c1OCCCN1CCCCC1)c1cc(F)ccc1F` [Example 272, 4-Chloro-N-(2,5-difluorophenyl)-N-({1-[3-(1-piperidinyl)propoxy]-2-naphthylmethyl)benzenesulfonamide Hydrochloride], for which the IC50 lay within 25 to 50 nM. With `CN1CCCCC1CCOc1ccccc1CN(c1ccccc1)S(=O)(=O)c1ccc(Cl)cc1` (stereo not shown) [Example 276, 4-Chloro-N-{2-[2-(1-methyl-2-piperidinyl)ethoxy]benzyl}-N-phenylbenzenesulfonamide Hydrochloride], the IC50 was 25 to 50 nM. With `CN1CCCC1CCOc1ccccc1CN(c1ccccc1)S(=O)(=O)c1ccc(Cl)cc1` (stereo not shown) [Example 277, 4-Chloro-N-{2-[2-(1-methyl-2-pyrrolidinyl)ethoxy]benzyl}-N-phenylbenzenesulfonamide Hydrochloride], the IC50 lay within 25 to 50 nM.

Regarding `O=S(=O)(c1ccccc1)N(Cc1ccccc1OCCCN1CCC(O)C1)c1ccccc1` (stereo not shown) [Example 279, N-{2-[3-(3-hydroxy-1-pyrrolidinyl)propoxy]benzyl}-N-phenylbenzenesulfonamide Hydrochloride], the IC50 fell in the range of 25 to 50 nM.

For `CC(C)(C)OC(=O)N1CCN(CCCOc2ccccc2CN(c2ccccc2)S(=O)(=O)c2ccc(Cl)cc2)CC1` [Example 288, Tert-butyl 4-{3-[2-({[(4 chlorophenyl)sulfonyl}anilino}methyl)phenoxy]propyl}-1-piperazinecarboxylate], the IC50 was in the range of 25 to 50 nM.

For `O=S(=O)(c1ccc(Cl)cc1)N(Cc1ccccc1OCCCN1CC=CCC1)c1ccccc1` [Example 289, 4-Chloro-N-{2-[3-(3,6-dihydro-1(2H)pyridinyl)propoxy]benzyl}-N-phenylbenzenesulfonamide Hydrochloride], the IC50 lay within 25 to 50 nM.

As for `O=S(=O)(c1ccc(Cl)cc1)N(Cc1ccccc1OCCCN1CCC(Cc2ccccc2)CC1)c1ccccc1` [Example 290, N-{2-[3-(4-benzyl-1-piperidinyl)propoxy]benzyl}-4-chloro-N-phenylbenzenesulfonamide Hydrochloride], the IC50 was in the range of 25 to 50 nM. Turning to `O=S(=O)(c1ccc(Cl)cc1)N(Cc1ccccc1OCCCN1CCC1)c1ccccc1` [Example 292, N-{2-[3-(1-azetidinyl)propoxy]benzyl}-4-chloro-N-phenylbenzenesulfonamide Hydrochloride], the IC50 lay in the range of 25 to 50 nM.

`O=S(=O)(c1ccc(Cl)cc1)N(Cc1ccccc1OCCCNC1CC1)c1ccccc1` [Example 297, 4-Chloro-N-{2-[3-(cyclopropylamino)propoxy]benzyl}-N-phenylbenzenesulfonamide Hydrochloride]: the IC50 was 50 to 100 nM. For `O=S(=O)(c1ccc(Cl)cc1)N(Cc1ccccc1OCCCN1CCC(O)CC1)c1ccccc1` [Example 298, 4-Chloro-N-{2-[3-(4-hydroxy-1-piperidinyl)propoxy]benzyl}-N-phenylbenzenesulfonamide Hydrochloride], the IC50 lay in the range of 50 to 100 nM. The same measure, in the same setting: the value for `CN1C2CCC1[C@@H](COc1ccccc1CN(c1ccccc1)S(=O)(=O)c1ccc(Cl)cc1)C2` (stereo partly drawn) [Example 300, 4-Chloro-N-(2-{[(2S)-7-methyl-7-azabicyclo[2.2.1]hept-2-yl]methoxy]benzyl)-N-phenylbenzenesulfonamide Hydrochloride] was 50 to 100 nM. For the compound `O=S(=O)(c1ccc(Cl)cc1)N(Cc1ccccc1OCCCn1ccnc1)c1ccccc1` [Example 302, 4-Chloro-N-{2-[3-(1H-imidazol-1-yl)propoxy]benzyl}-N-phenylbenzenesulfonamide Hydrochloride], the IC50 was 50 to 100 nM.

In the case of `CC1CC(C)CN(CCCOc2ccccc2CN(c2ccccc2)S(=O)(=O)c2ccc(Cl)cc2)C1` (stereo not shown) [Example 303, 4-Chloro-N-{2-[3-(3,5-dimethyl-1-piperidinyl)propoxy]benzyl}-N-phenylbenzenesulfonamide Hydrochloride], the IC50 is 50 to 100 nM. Regarding `O=S(=O)(c1ccc(Cl)cc1)N(Cc1ccccc1OCCCN1CCCCCC1)c1ccccc1` [Example 305, N-{2-[3-(1-azepanyl)propoxy]benzyl}-4-chloro-N-phenylbenzenesulfonamide Hydrochloride], the IC50 lay in the range of 50 to 100 nM.

For the compound `C[C@@H]1CCC[C@H](C)N1CCCOc1ccccc1CN(c1ccccc1)S(=O)(=O)c1ccc(Cl)cc1` [Example 306, 4-Chloro-N-(2-{3-[(2R,6S)-2,6-dimethylpiperidinyl]propoxy}benzyl)-N-phenylbenzenesulfonamide Hydrochloride], the IC50 was 50 to 100 nM.

The record behind these values is patent US6967196B1, “Sulfonamide compounds and uses thereof” (Bristol-Myers Squibb Company, priority 1999, dated 2005).
